Measurements reported in patent US20230265524A1, “IMMUNOGENIC RETROELEMENTS AND THEIR USE IN CANCER THERAPY” (UNIVERSITY HEALTH NETWORK, priority 2020, published 2023).

Columns and labels:
Format in all cases: cell-based, human
[1] = test system: patient-derived colorectal cancer cells (CRCs); assay: total stranded RNA-seq of repeat element expression after 5-AZA-CdR; conditions: low doses of 5-AZA-CdR, 5 days, vs mock-treated
Protocol: A, Effect of 5-AZA-CdR on repeat element expression in patient-derived xenograft colorectal cancer cells after 5 days of treatment. Plots show log (fold change) for 5-AZA-CdR treated cells over mock-treated cells for anti-sense (y-axis) and sense (x-axis) transcripts of each SINE, LINE and ERV repeat element (CPM). […] The significance was determined as p≤0.05 and |log FC|≥1 at each strand.
To identify drug-induced immunogenic retroelements on a global scale, we examined the endogenous dsRNA formation in patient-derived colorectal cancer cells (CRCs) that were treated with low doses of 5-AZA-CdR, an FDA-approved DNMTi, or mock-treated. To this end, we performed total stranded RNA-seq and assessed repetitive elements transcribed in both strands, therefore likely to produce dsRNA species.

[2] = test system: H3K4me3 and H3K27ac upstream of treatment-induced IR-Alus; assay: genome-wide CUT&RUN of H3K4me3 and H3K27ac at treatment-induced IR-Alus; conditions: DNMTi treatment
Excerpt: D, Heatmaps and average CUT & RUN profiles of H3K4me3 (left) and H3K27ac (right) signal at −50 kb/+50 kb (Upstream/downstream) of the Treatment-induced IR-Alu pairs regions. The orientation was based on the transcriptional orientation in the MDA5-protected RNA-seq data
Active promoters and enhancers are often marked by H3K4me3 and H3K27ac, respectively. […] Importantly, we assessed the DNA methylation status of these specific regulatory regions that became H3K4me3 marked upstream of the induced IR-Alus following epigenetic therapy and found the majority of these regions to be frequently methylated before treatment. We observed that 91% of these regions were either partially or fully methylated in the panel of 51 CRC cell lines (FIG. 6C) and 94% in the panel of 988 pan-cancer cell lines (FIG. 6D). Moreover, we observed that the DNA methylation status of these regulatory regions upstream of induced IR-Alus were inversely correlated (r=−0.23, p=7.58-13) with the expression of a panel of Interferon-Stimulated Genes (n=22 ISGs) from our viral mimicry signature^1 across the 988 pan-cancer cell lines (FIG. 6E).

ADAR1 [3] = assay: qPCR analysis of ADAR1 mRNA level and isoforms
Protocol: C, qPCR analysis of total ADAR1 mRNA level after treatment with 5-AZA-CdR (300 nM, for 5 days) or transfection with 100 ng ml-1 poly(I:C) over a course of 24 days. Cells were washed out at day 5 and seeded in drug-free medium. Data are mean±s.e.m.****P<0.0001, Sidak-corrected two-way ANOVA.
A, ADAR1 isoforms (p110 and p150) relative expression analysed by qPCR. LACZ denotes ADAR1WT; PIC denotes 100 ng/ml poly (I:C) for 5 days; AZA denotes 300 nM 5-AZA-CdR for 5 days). Data are mean±s.e.m. (n=3 from three independent experiments). ***P<0.001, ****P<0.0001, Tukey-corrected two-way ANOVA.
To test this hypothesis, we first determined if ADAR1 depletion affects dsRNA formation by IR-Alus in untreated patient-derived CRCs. We generated ADAR1 knock-down CRCs using two different hairpin RNAs (ADAR1^KDA/B) and confirmed depletion of both the constitutively expressed (p110) and interferon-inducible (p150) ADAR1 isoforms (FIG. 8A). […] To determine if MDA5 ligands also increase upon ADAR1 depletion, we performed the MDA5 protection assay followed by RNA-Seq, as above. […] Again, these immunogenic Alus were primarily IR-Alu pairs unidirectionally transcribed in either the sense (+/+) or antisense (−/−) direction and induced upon ADAR1 depletion (FIG. 9C-J).
(§1) Next, we tested whether epigenetic therapy can induce and activate ADAR1 editing activity.

ADAR1 [4] = assay: genome-wide A-to-I editing loci counts in Alus (RNA-seq)
Excerpt: G, Genome-wide A-to-I editing loci counts in Alus in the RNA-seq data performed in the total cytoplasmic fraction (‘Total CytoRNA’) and in the MDA5-protected fraction (‘MDA5-protected’) at the mock-treated (MT) ADAR1^WT, 5-AZA-CdR-treated ADAR1^WT, mock-treated ADAR1^KD, and 5-AZA-CdR-treated ADAR1^KD conditions.
as §1

[5] = test system: LIM1215 colorectal cancer cell lines; assay: ISG relative expression in LIM1215 cells; conditions: LIM1215, ADAR1 KD vs WT, 300 nM for 5 days
Protocol: B) Interferon-stimulated genes (MDA5, IRF7 and DDX58) relative expression in ADAR1^WT and ADAR1^KD LIM1215 colorectal cancer cell lines treated with 300 nM 5-AZA-CdR for 5 days.
(§2) Based on these findings, we hypothesized that ADAR1 depletion would synergize with the viral mimicry response induced by DNMTi treatment. To assess how ADAR1 depletion affects 5-AZA-CdR treated samples, we performed RNA-seq analyses in patient-derived CRC cells. […] As a molecular read-out of dsRNA pattern recognition activation, we measured MAVS aggregation in the mitochondrial fraction of cell lysates^34. […] Taken together, our findings establish that ADAR1 acts as a negative feedback loop, restricting the viral mimicry response induced by DNMTi treatment in cancer cells.

MAVS = MAVS aggregation by SDS-AGE; conditions: ADAR1-depleted, mitochondrial fraction of cell lysates
Excerpt: J, MAVS aggregation analyzed by SDS-AGE and MAVS protein level analyzed by SDS-PAGE. VDAC served as a loading control in SDS-PAGE.
as §2

[6] = test system: patient-derived CRC cells; assay: survival of patient-derived CRC cells, luminescence dose-response; conditions: in vitro, ADAR1-knockdown vs wild-type patient-derived CRC cells
Protocol: A, Survival of wild-type ADAR1 (black) and ADAR1-knockdown (gray) patient-derived CRC cells after treatment with 5-AZA-CdR. Luminescence signal was normalized, and dose-response curves and EC50 values were calculated using a nonlinear regression curve fit.
Finally, we sought to investigate whether ADAR1 inhibition would synergize with epigenetic therapy to increase the anti-tumour response. […] To examine the potential synergy in vivo, we injected ADAR1^KDA/B or wildtype patient-derived xenograft CRC cells subcutaneously into immune-deficient NOD.Cg-Prkdc (NSG) mice, and treated the mice with 5-AZA-CdR or vehicle (PBS) (FIG. 12B and FIG. 13A). […] Thus, ADAR1 inhibition in human cancer cells profoundly sensitizes tumours to 5-AZA-CdR treatment in vivo.

Q: `Nc1ncn([C@H]2C[C@H](O)[C@@H](CO)O2)c(=O)n1` [5-AZA-CdR] was tested. Which “sense and/or antisense transcription of repeat elements (LINEs, ERVs, SINEs)” value [1] did it give?
A: The value was “increased sense and/or antisense transcription of long interspersed nuclear elements (LINEs) and ERVs, but not short interspersed nuclear elements (SINEs)”.

Q: What about the “H3K4me3 and H3K27ac levels directly upstream of treatment-induced immunogenic IR-Alus” value [2] of the same compound?
A: Its value is “elevated levels of H3K4me3, but not H3K27ac”.

Q: And the ADAR1 expression (ADAR1 [3]; patient-derived CRCs, 300 nM for 5 days)?
A: The ADAR1 expression was “up-regulated ADAR1 expression”.

Q: And the “duration of ADAR1 up-regulation after drug withdrawal” value (ADAR1 [3]; washed out at day 5, drug-free medium, 24 days course)?
A: The value was “sustained for about fourteen days after drug withdrawal”.

Q: And the “A-to-I editing of MDA5-protected Alus” value (ADAR1 [4]; ADAR1-depleted cells)?
A: The value was “depletion of ADAR1 abrogated this effect”.

Q: What about the “A-to-I editing of MDA5-protected Alus” value (ADAR1 [4]; ADAR1 WT cells) of the same compound?
A: Its value is “genome-wide increased A-to-I editing”.

Q: And the “expression of IFN stimulated genes (ISGs)” value [5]?
A: Its value is “enhanced upon ADAR1 depletion”.

Q: What about the “MAVS activation (aggregation)” value (MAVS) of the same compound?
A: Its value is “enhanced MAVS activation”.

Q: What about the “reduction of EC50 by ADAR1 knock-down” value [6] of the same compound?
A: The value was “four to six-fold reduction”.
